Laboratory results as given in patent publication US20130071874A1, “SYSTEM AND METHOD FOR ANTI-CANCER DRUG CANDIDATE EVALUATION” (priority 2010, published 2013).

Assays:
[1] = test system: MOLT-3, an acute T-cell lymphoblastic leukemia; assay: MiCK-type apoptosis drug screening assay (OD 600 nm, kinetic units), MOLT-3; format: cell-based, human; details: MOLT-3 cells; 0.01-20 μM
Description: (§1) KU=(VmaxDrug Treated−VmaxControl)×60×y/(ODcell−ODblank).
(§2) Vmax is the maximum kinetic rate, which is the slope of the steep increase in the OD v. time plot when cells are undergoing apoptosis. Vmax in this equation is given in milli-optical density units/hour (mOD/h). ODcell is the initial OD of the control containing cells and ODblank is the initial OD of a blank well containing only medium or medium and drug (the drug may be omitted for some drugs, but for colored drugs in particular it may be included in the blank). y is a coefficient dependent on the cell type being assayed and may be determined experimentally through observation of the cell lines. Further information regarding this equation may be found in Kravtsov et al. […]
(§3) Cells from each cell line in complete medium were placed in wells of a 96-well plate at a concentration of 2 to 5×10^5 cells/ml. […] The microtiter plate was placed in an incubated spectrophotometer chamber (37° C.) and OD at 600 nm was measured every 5 minutes for a period of 48 hours. The reader was calibrated to zero absorbance using well containing only complete medium and no cells. […]
(§4) Data acquisition and computation was performed using appropriate software. OD readings were plotted against time to provide a kinetic representation of cell responses to the drugs and drug candidate. Kinetic units were calculated for each test well. […]

[2] = test system: ovarian cancer cell line, CAOV-3; assay: MiCK-type apoptosis drug screening assay, CAOV-3; format: cell-based; details: CAOV-3 cells; as Example 1 but with higher drug concentrations
Description: as §1
Vmax is the maximum kinetic rate, which is the slope of the steep increase in the OD v. time plot when cells are undergoing apoptosis. Vmax in this equation is given in milli-optical density units/hour (mOD/h). ODcell is the initial OD of the control containing cells and ODblank is the initial OD of a blank well containing only medium or medium and drug (the drug may be omitted for some drugs, but for colored drugs in particular it may be included in the blank). y is a coefficient dependent on the cell type being assayed and may be determined experimentally through observation of the cell lines. Further information regarding this equation may be found in Kravtsov et al.
Cancer cells were obtained from exponentially growing cultures in RPMI 1640 medium without phenol red supplemented with 10% heat-inactivated fetal bovine serum, 100 U/ml penicillin and 100 μg/mL streptomycin (complete medium) in humidified air with 5% CO2 at 37° C. Cells were harvested, washed with pre-warmed medium and resuspended in complete medium. Appropriate cell counts and viability were tested.
Cells from each cell line in complete medium were placed in wells of a 96-well plate at a concentration of 2 to 5×10^5 cells/ml. Various dilutions of the drug candidate, Idarubicin, were added to the wells in 5 μL aliquots. Final concentrations for the drug candidate were 0.01, 0.1, 0.5, 1, 5, 10 and 20 μM. The plates were incubated at 37° C. for 30 minutes in a humidified 5% CO2 atmosphere. After this adjustment period, 30 μl of sterile mineral oil was layered on top of each well. The microtiter plate was placed in an incubated spectrophotometer chamber (37° C.) and OD at 600 nm was measured every 5 minutes for a period of 48 hours. The reader was calibrated to zero absorbance using well containing only complete medium and no cells. All tests were performed in triplicate.
Data acquisition and computation was performed using appropriate software. OD readings were plotted against time to provide a kinetic representation of cell responses to the drugs and drug candidate. Kinetic units were calculated for each test well. A kinetic unit below three was considered a negative response and above 3 was considered a positive response. A kinetic unit between 1.5 and 3 was considered a marginal response.
A variety of anti-cancer drugs were tested against a single ovarian cancer cell line, CAOV-3, to determine their suitability for use against ovarian cancer. Tests were performed in a manner similar to those in Example 1, but with higher drug concentrations.

[3] = test system: RAMOS, a B cell line derived from Burkitt's lymphoma; assay: MiCK-type apoptosis drug screening assay (OD 600 nm, kinetic units), RAMOS; format: cell-based, human; details: 0.01-20 μM
Description: as §1, §2, §3, §4

| Compound | kinetic unit readings versus concentration (in words) [1] | response / suitability (in words) [2] | response versus concentration (in words) [3] |
| --- | --- | --- | --- |
| CC(=O)[C@]1(O)Cc2c(O)c3c(c(O)c2[C@@H](O[C@H]2C[C@H](N)[C@H](O)[C@H](C)O2)C1)C(=O)c1ccccc1C3=O [Idarubicin, 4-demethoxydaunorubicin] | higher kinetic unit readings at lower concentrations | positive response at reasonable concentrations | positive response was seen in the Ramos cell line only at high concentrations |
| O=C1c2c(O)ccc(O)c2C(=O)c2c(NCCNCCO)ccc(NCCNCCO)c21 [Mitoxantrone] |  | positive response at reasonable concentrations |  |
| CO[C@@]12[C@H](COC(N)=O)C3=C(C(=O)C(C)=C(N)C3=O)N1C[C@@H]1N[C@@H]12 [Mitomycin] |  | positive response at reasonable concentrations |  |
| CCC1=C[C@@H]2CN(C1)Cc1c([nH]c3ccccc13)[C@@](C(=O)OC)(c1cc3c(cc1OC)N(C)[C@H]1[C@@](O)(C(=O)OC)[C@H](OC(C)=O)[C@]4(CC)C=CCN5CC[C@]31[C@@H]54)C2 [Vinorelbine] |  | not suitable drugs for treating ovarian cancer |  |
| COc1cccc2c1C(=O)c1c(O)c3c(c(O)c1C2=O)C[C@@](O)(C(C)=O)C[C@@H]3O[C@H]1C[C@H](N)[C@H](O)[C@H](C)O1 [Daunorubicin] |  | positive response at reasonable concentrations |  |
| CCc1c2c(nc3ccc(OC(=O)N4CCC(N5CCCCC5)CC4)cc13)-c1cc3c(c(=O)n1C2)COC(=O)[C@]3(O)CC [Irinotecan] |  | need to use high concentrations of the drug to achieve a positive response |  |
| O=C1[O][Pt]2([NH][C@@H]3CCCC[C@H]3[NH]2)[O]C1=O [Oxaliplatin] |  | not suitable drugs for treating ovarian cancer |  |
